In US20100316732A1, “BEVERAGE COMPOSITIONS FOR THE PROMOTION OF JOINT HEALTH IN COMPANION ANIMALS” (priority 2008, published 2010):

Assay: Maximum solubility per liter of the active ingredients
Format: physicochemical
Conditions: active ingredient of aqueous canine water formula

[Cl-].[Cl-].[Mg+2] [Magnium chloride]
Maximum Solubility/Liter: 1100 µg/mL
